{"source": "patent US20260137662A1", "about": "“CD11B AGONISTS FOR TREATMENT OF AUTOIMMUNE DISEASE” (Rush University Medical Center, priority 2022, published 2026)", "key": {"[1]": {"tested_on": "TLR signaling pathways", "assay": "Relative gene expression in RAW cells treated with Poly(I:C)", "format": "cell-based, murine", "details": "Poly(I:C) (0.1 ug/mL) and LA1 (20 uM) co-treatment, 4 hours", "procedure": "FIG. 2C illustrates relative gene expression of biomarker uPAR in RAW cells after 4 hours of treatment with Poly(I:C) (0.1 ug/mL), LA1 (20 uM), and Poly(I:C) […] LA1 co-treatment.\nFIG. 2D illustrates relative gene expression biomarker IL-1b in RAW cells after 4 hours of treatment with Poly(I:C) (0.1 ug/mL), LA1 (20 uM), or Poly(I:C) and LA1 co-treatment.\nThe effect of LA1 on TLR-stimulation dependent pro-inflammatory pathways was studied by stimulating myeloid cells with different TLR-stimulants (lipopolysaccharide (LPS), Pam2CSK 4, imiquimod (IMQ)) or with phorbol 12-myristate 13-acetate (PMA) and co-treating with LA1. The levels of suPAR (pg/mL) and TNFa (pg/mL) in cell supernatant were measured 4 hours after treatment using ELISA. […] Relative gene expression was also assessed in myeloid cells treated with Poly(I:C), a known toll-like receptor (TLR) agonist, and co-treated with LA1."}, "[2]": {"tested_on": "BMDMs from C57BL/6 wild type mice (WT)", "assay": "Biomarker secretion from IMQ-treated bone marrow derived macrophages of wild type mice", "format": "cell-based", "details": "WT cells, IMQ (20 ug/mL) and LA1 (20 uM) co-treatment, 4 hours", "procedure": "(§1) FIG. 7A illustrates levels of biomarker IL-6 secretion in bone marrow derived macrophages (BMDMs) from C57BL/6 wild type (WT) mice, mice with global deletion of CD11b (KO), or C57BL/6 mice expressing CD11b with a point mutation (KI), the macrophages treated for 4 hours with vehicle DMSO (UT), LA1 (20 uM), IMQ (20 ug/mL), or IMQ and LA1 co-treatment. Bars show mean with SD (N=3) (*P<0.05, **P<0.01, ***P<0.001, ****P<0.0001).\nas §1, with “7B” for “7A”, “IL-1b” for “IL-6”\nas §1, with “7C” for “7A”, “suPAR” for “IL-6”\nas §1, with “7D” for “7A”, “IFNb” for “IL-6”\nBone marrow derived macrophages (BMDMs) from C57BL/6 wild type mice (WT), mice with global deletion of CD11b (KO), and C57BL/6 mice expressing CD11b with a point mutation (KI), as described previously (Martinez et al., 2020) were used to evaluate the effect of pharmacologic activation of CD11b by LA1 or genetic activation of CD11b on TLR-pathway dependent biomarkers. BMDMs from WT, KO, and KI mice were left untreated, treated with LA1, treated with IMQ, or co-treated with LA1 and IMQ and levels of biomarkers IL-1b, suPAR, IL-6 and IFN-b were measured 4 hours after treatment."}, "[3]": {"tested_on": "IMQ-induced mouse model of lupus", "assay": "IMQ-induced mouse model of lupus, LA1 started 0, 2 or 4 weeks after disease induction", "format": "in vivo, wild type C57BL/6 mice", "procedure": "FIG. 12A illustrates levels of anti-dsDNA antibodies measured weekly in mice co-treated with IMQ and LA1 (30 mg/kg, BID) for 8 weeks. Each dot represents mean +/−SEM (n=4).\nFIG. 12B illustrates levels of anti-dsDNA antibodies measured weekly in mice treated with IMQ for 8 weeks starting at week 0 and additionally treated with LA1 (30 mg/kg, BID) for 6 weeks, starting at week 2. Each dot represents mean +/−SEM (n=4).\nFIG. 12C illustrates levels of anti-dsDNA antibodies measured weekly in mice treated with IMQ for 8 weeks starting at week 0 and additionally treated with LA1 (30 mg/kg, BID) for 4 weeks, starting at week 4. Each dot represents mean +/−SEM (n=4).\nFIG. 12D illustrates levels of biomarker suPAR measured weekly in mice co-treated with IMQ and LA1 (30 mg/kg, BID) for 8 weeks. Each dot represents mean +/−SEM (n=4).\nFIG. 12E illustrates levels of biomarker suPAR measured weekly in mice treated with IMQ for 8 weeks starting at week 0 and additionally treated with LA1 (30 mg/kg, BID) for 6 weeks, starting at week 2. Each dot represents mean +/−SEM (n=4).\nFIG. 12F illustrates levels of biomarker suPAR measured weekly in mice treated with IMQ for 8 weeks starting at week 0 and additionally treated with LA1 (30 mg/kg, BID) for 4 weeks, starting at week 4. Each dot represents mean +/−SEM (n=4).\nFIG. 12G illustrates an experimental timeline for the measurement of anti-dsDNA antibody and suPAR levels in mice treated with IMQ and LA1 for 8 weeks, the LA1 treatment initiated at various time points.\nTo assess therapeutic efficacy of LA1 in a TLR7-dependent SLE murine model, an IMQ-induced mouse model of lupus (Yokogawa et al., 2014) was used. To induce disease, wild type C57BL/ 6 mice (WT) were treated with IMQ cream (Aldara) over the course of 8 weeks. IMQ-induced mice were then treated with LA 1, the treatment initiated at 0, 2, and 4 weeks after disease induction, as shown in FIG. 12G. Anti-dsDNA antibody and suPAR levels were measured in the murine serum at various time points during treatment."}, "[4]": {"details": "LA1 30 mg/kg BID co-treated with IMQ for 8 weeks (start week 0)"}, "[5]": {"details": "LA1 30 mg/kg BID started four weeks after initial IMQ (after disease onset)"}, "[6]": {"details": "LA1 30 mg/kg BID started two weeks after initial IMQ (after disease onset)"}}, "data": [{"smiles": "O=C(O)c1ccc(-c2ccc(/C=C3\\SC(=S)N(Cc4ccccc4)C3=O)o2)cc1", "note": "[LA1, (Z)-4-(5-((3-benzyl-4-oxo-2-thioxothiazolidin-5-ylidene)methyl)furan-2-yl)benzoic acid]", "values": [{"measurement": "relative gene expression of biomarker IL-1b", "setting": "[1]", "result": "significantly reduced"}, {"measurement": "relative gene expression of biomarker uPAR", "setting": "[1]", "result": "significantly reduced"}, {"measurement": "level of IFN-b in cell supernatant", "setting": "[2]", "result": "significantly suppressed"}, {"measurement": "level of IL-1b in cell supernatant", "setting": "[2]", "result": "significantly suppressed"}, {"measurement": "level of IL-6 in cell supernatant", "setting": "[2]", "result": "significantly suppressed"}, {"measurement": "level of suPAR in cell supernatant", "setting": "[2]", "result": "significantly suppressed"}, {"measurement": "anti-dsDNA antibody levels in serum", "setting": "[3]; [4]", "result": "significantly reduced"}, {"measurement": "suPAR levels in serum", "setting": "[3]; [4]", "result": "significantly reduced"}, {"measurement": "anti-dsDNA antibody levels in serum", "setting": "[3]; [5]", "result": "significantly reduced"}, {"measurement": "suPAR levels in serum", "setting": "[3]; [5]", "result": "significantly reduced"}, {"measurement": "anti-dsDNA antibody levels in serum", "setting": "[3]; [6]", "result": "significantly reduced"}, {"measurement": "suPAR levels in serum", "setting": "[3]; [6]", "result": "significantly reduced"}]}]}
